System: HMCLs
Assay: HMCLs response to drug treatment (IC50 at day 4, CellTiter-Glo assay)
Format: cell-based, human
Details: classification from IC50 at day 4
Protocol: HMCLs were cultured in RPMI-1640 medium (Gibco, Thermo Fisher Scientific, Waltham, USA) supplemented with 10% fetal bovine serum (Eurobio, Les Ulis, France) and IL-6 (Peprotech, Rocky Hill, USA) for XG cell lines. The inventorsevaluated the sensitivity of HMCLs to lenalidomide and romidepsin (Selleckchem, Houston, USA). The IC50 was determined at day 4 using the CellTiter-Glo assay (Promega, Madison, USA), as previously described. The data represent the mean ± standard deviation of three independent experiments that were carried out on sextuplet culture wells (Figure 6A and 7A).

Nc1cccc2c1CN(C1CCC(=O)NC1=O)C2=O (centres unmarked) [lenalidomide]
sensitivity of HMCLs to lenalidomide (AMO1, JJN3, KMS-12-BM, SKMM2, XG1, XG5, XG7, XG12, XG20 and XG21 HMCLs): resistant | sensitivity of HMCLs to lenalidomide (OPM2, RPMI8226, XG2, XG6, XG13 and XG19 HMCLs): sensitive
